Results published in patent US20250163057A1, “DCN-1 MODULATING COMPOUNDS AND METHODS OF USE THEREOF” (Cellarity, Inc., priority 2023, published 2025).
Read-outs that look alike come from different tables or passages of the source.

Legend:
[1] = target: DCN1 protein (Homo sapiens (Human), UniProt Q96GG9); assay: Intact Protein MS Analysis with the RapidFire-TOF System (covalent adduct formation); type: binding; details: MS Emax; 400 nM DCN1, 3 hours at room temperature
Procedure, shortened: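 Tag-cleaved human DCN1 (400 nM) expressed in E. coli, in 25 mM Tris-HCl, 200 mM NaCl, 1 mM DTT, was incubated with 11 compound concentrations for 3 h at room temperature and quenched with 0.2% formic acid. Intact-protein Q-TOF MS with deconvolution detected the compound adduct mass.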

[2] = target: DCN1 (DCUND1) protein PONY domain (Homo sapiens (Human), UniProt Q96GG9); assay: TR-FRET assay, DCN1 binding with FAM-labeled probe
Procedure, shortened: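 TR-FRET ratio (Tb-DCN1 to FAM-probe) read at 1, 5 and 24 hrs after compound addition. Protein: recombinant PONY domain from E. coli, biotinylated and coupled to streptavidin terbium. Either 5 nM DCN1 with 20 nM FAM-probe, or 0.31 nM DCN1 with 100 nM FAM-labelled plus 800 nM unlabelled probe.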

[3] = test system: Cullin-3 (CUL3) neddylation; assay: AlphaLISA assay for Cullin-3 (CUL3) neddylation in TF 1 cells; type: cell-based; details: Homo sapiens, 3 hours treatment
Procedure, shortened: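 Neddylated CUL3 was quantified by AlphaLISA in lysates of TF 1 cells exposed for 3 h to test compound in IMDM without supplements. Percent inhibition set between vehicle and 1 μM DI-1548 positive control; IC50 derived by Hill-equation fitting of dose-response curves.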

[4] = 24 hr after treatment with compound, read-out: TR FRET IC50 24 hr
[5] = read-out: TR FRET IC50 1 hr, 1 hr after treatment with compound

Chain of DCN1 protein (Q96GG9 whole entry): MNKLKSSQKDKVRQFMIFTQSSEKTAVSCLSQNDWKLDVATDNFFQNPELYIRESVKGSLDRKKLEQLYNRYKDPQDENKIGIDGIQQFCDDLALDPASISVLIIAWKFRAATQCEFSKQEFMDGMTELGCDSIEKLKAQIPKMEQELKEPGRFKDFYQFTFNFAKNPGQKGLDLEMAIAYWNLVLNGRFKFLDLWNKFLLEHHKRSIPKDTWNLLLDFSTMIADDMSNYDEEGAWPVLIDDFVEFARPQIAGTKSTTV
Chain of DCN1 (DCUND1) protein PONY domain (Q96GG9 60-248): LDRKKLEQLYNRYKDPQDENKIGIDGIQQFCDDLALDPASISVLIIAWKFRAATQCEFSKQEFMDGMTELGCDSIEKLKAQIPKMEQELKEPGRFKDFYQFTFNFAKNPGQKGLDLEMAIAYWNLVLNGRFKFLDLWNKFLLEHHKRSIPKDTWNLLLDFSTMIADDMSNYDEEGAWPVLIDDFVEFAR

| Structure (SMILES) | % Adduct Formation [1] | IC50 [2, 4] [nM] | IC50 [2, 5] [nM] | IC50 ([3]; TF-1, 3 h) [nM] | IC50 ([2]; TR FRET IC50 1 hr (nM), 1 hr after treatment with compound) [nM] | IC50 [3] [nM] |
| --- | --- | --- | --- | --- | --- | --- |
| CCN1C(=O)[C@@H](NC(=O)c2cccc(C(F)(F)F)c2)[C@@H](c2ccc(F)cc2)c2c(C(=O)N3CCN(C4COC4)CC3C#N)nn(-c3ccccc3)c21 (stereo partly drawn) [Compound I-357] | ++ (MS Emax % adduct formation greater than 30.0 and less than or equal to 80.0) | ≤ 200 | ≤ 200 | ≤ 100 |  |  |
| CCN1C(=O)[C@@H](NC(=O)c2cccc(C(F)(F)F)c2)[C@@H](c2ccc(F)cc2)c2c(C(=O)N(CC#N)CC#N)nn(C3CCOCC3)c21 [Compound I-365] | +++ (MS Emax % adduct formation greater than 80.0 and less than or equal to 100.0) | ≤ 200 | ≤ 200 | ≤ 100 |  |  |
| CCN1C(=O)[C@@H](NC(=O)c2cccc(C(F)(F)F)c2)[C@@H](c2ccc(F)cc2)c2c(C(=O)N(C)CC#N)nn(C3CCOCC3)c21 [Compound I-366] | +++ (MS Emax % adduct formation greater than 80.0 and less than or equal to 100.0) | ≤ 200 | ≤ 200 | ≤ 100 |  |  |
| CCN1C(=O)[C@@H](NC(=O)c2cccc(C(F)(F)F)c2)[C@@H](c2ccc(F)cc2)c2c(C(=O)N(C)[C@H](C)C#N)nn(C3CCOCC3)c21 [Compound I-367] | +++ (MS Emax % adduct formation greater than 80.0 and less than or equal to 100.0) | ≤ 200 | ≤ 200 | ≤ 100 |  |  |
| CCN1C(=O)[C@@H](NC(=O)c2cccc(C(F)(F)F)c2)[C@@H](c2ccc(F)cc2)c2c(C(=O)N(C)[C@@H](C)C#N)nn(C3CCOCC3)c21 [Compound I-368] | +++ (MS Emax % adduct formation greater than 80.0 and less than or equal to 100.0) | ≤ 200 | ≤ 200 | ≤ 100 |  |  |
| CCN1C(=O)[C@@H](NC(=O)c2cccc(C(F)(F)F)c2)[C@@H](C2CC2)c2c(C(=O)N(CC#N)CC#N)nn(C3CCOCC3)c21 [Compound I-373] | ++ (MS Emax % adduct formation greater than 30.0 and less than or equal to 80.0) | ≤ 200 | ≤ 200 | ≤ 100 |  |  |
| CCN1C(=O)[C@@H](NC(=O)c2cccc(C(F)(F)F)c2)[C@@H](C2CCC2)c2c(C(=O)N(C)C(C)C#N)nn(C3CCOCC3)c21 (stereo partly drawn) [Compound I-375] | +++ (MS Emax % adduct formation greater than 80.0 and less than or equal to 100.0) | ≤ 200 | ≤ 200 | ≤ 100 |  |  |
| CCN1C(=O)[C@@H](NC(=O)c2cccc(C(F)(F)F)c2)[C@@H](C2CCCC2)c2c(C(=O)N3[C@H](C#N)C[C@H]4C[C@H]43)nn(C3CCOCC3)c21 [Compound I-376] | +++ (MS Emax % adduct formation greater than 80.0 and less than or equal to 100.0) | ≤ 200 | ≤ 200 | ≤ 100 |  |  |
| CCN1C(=O)[C@@H](NC(=O)c2cccc(C(F)(F)F)c2)[C@@H](C2CC2)c2c(C(=O)N3CCOC[C@H]3C#N)nn(-c3ccccc3)c21 [Compound I-382] | +++ (MS Emax % adduct formation greater than 80.0 and less than or equal to 100.0) | ≤ 200 |  | ≤ 100 | 200 to 1000 |  |
| N#C[C@@H]1C[C@H]2C[C@H]2N1C(=O)c1nn(C2CCOCC2)c2c1[C@H](C1CC1)[C@H](NC(=O)c1cccc(C(F)(F)F)c1)C(=O)N2C1CC1 [Compound I-388, N-((4S,5S)-3-((1R,3S,5R)-3-cyano-2-azabicyclo[3.1.0]hexane-2-carbonyl)-4,7-dicyclopropyl-6-oxo-1-(tetrahydro-2H-pyran-4-yl)-4,5,6,7-tetrahydro-1H-pyrazolo[3,4-b]pyridin-5-yl)-3-(trifluoromethyl)benzamide] | ++ (MS Emax % adduct formation greater than 30.0 and less than or equal to 80.0) | ≤ 200 | ≤ 200 | ≤ 100 |  |  |
| CCN1C(=O)[C@@H](NC(=O)c2cccc(SC(F)(F)F)c2)[C@@H](C2CC2)c2c(C(=O)N3[C@H](C#N)C[C@H]4C[C@H]43)nn(C3CCOCC3)c21 [Compound I-389] | +++ (MS Emax % adduct formation greater than 80.0 and less than or equal to 100.0) | ≤ 200 | ≤ 200 |  |  | ≤ 100 |
| CCN1C(=O)[C@@H](NC(=O)c2cccc(C(F)(F)F)n2)[C@@H](C2CC2)c2c(C(=O)N3[C@H](C#N)C[C@H]4C[C@H]43)nn(C3CCOCC3)c21 [Compound I-390] | +++ (MS Emax % adduct formation greater than 80.0 and less than or equal to 100.0) | ≤ 200 | ≤ 200 |  |  | ≤ 100 |
| CCN1C(=O)[C@@H](NC(=O)c2ccc3c(c2)CCC3)[C@@H](C2CC2)c2c(C(=O)N3[C@H](C#N)C[C@H]4C[C@H]43)nn(C3CCOCC3)c21 [Compound I-391] | +++ (MS Emax % adduct formation greater than 80.0 and less than or equal to 100.0) | ≤ 200 | ≤ 200 |  |  | ≤ 100 |
| CCN1C(=O)[C@@H](NC(=O)c2csc(C(F)(F)F)n2)[C@@H](C2CC2)c2c(C(=O)N3[C@H](C#N)C[C@H]4C[C@H]43)nn(C3CCOCC3)c21 [Compound I-392] | +++ (MS Emax % adduct formation greater than 80.0 and less than or equal to 100.0) | ≤ 200 | ≤ 200 |  |  | ≤ 100 |
| CCN1C(=O)[C@@H](NC(=O)c2cccc3c2OCCC3)[C@@H](C2CC2)c2c(C(=O)N3[C@H](C#N)C[C@H]4C[C@H]43)nn(C3CCOCC3)c21 [Compound I-394] | +++ (MS Emax % adduct formation greater than 80.0 and less than or equal to 100.0) | ≤ 200 | ≤ 200 |  |  | ≤ 100 |
| CCN1C(=O)[C@@H](NC(=O)c2cccc(OC)c2)[C@@H](C2CC2)c2c(C(=O)N3[C@H](C#N)C[C@H]4C[C@H]43)nn(C3CCOCC3)c21 [Compound I-395] | +++ (MS Emax % adduct formation greater than 80.0 and less than or equal to 100.0) | ≤ 200 | ≤ 200 |  |  | ≤ 100 |
| CCN1C(=O)[C@@H](NC(=O)c2cccc(OC(F)(F)F)c2)[C@@H](C2CC2)c2c(C(=O)N3[C@H](C#N)C[C@H]4C[C@H]43)nn(C3CCOCC3)c21 [Compound I-396] | +++ (MS Emax % adduct formation greater than 80.0 and less than or equal to 100.0) | ≤ 200 | ≤ 200 |  |  | ≤ 100 |
| CCN1C(=O)[C@@H](NC(=O)c2cccc3c2OCO3)[C@@H](C2CC2)c2c(C(=O)N3[C@H](C#N)C[C@H]4C[C@H]43)nn(C3CCOCC3)c21 [Compound I-397] | +++ (MS Emax % adduct formation greater than 80.0 and less than or equal to 100.0) | ≤ 200 | ≤ 200 |  |  | ≤ 100 |
